# Assay: thermal stability of the medicament at poly(vinyl alcohol) curing temperature
# Type: physicochemical
# Conditions: heating during curing of poly(vinyl alcohol)
# Procedure: Optionally, the temperature proximate the first drug delivery device and the temperature proximate the second drug delivery device is a minimum of about 120° C. and a maximum of about 210° C. In an embodiment, the temperature proximate the first drug delivery device and the temperature proximate the second drug delivery device is a minimum of about 125° C., about 130° C., about 135° C. or about 140° C. and/or a maximum of about 210° C., about 200° C., about 180° C., about 170° C., about 150° C. or about 140° C. The desired temperature for curing the poly(vinyl alcohol) is dependent upon several factors. If a temperature is selected below about 120° C., the poly(vinyl alcohol) will not cure effectively. If the temperature is above about 210° C., decomposition of the poly(vinyl alcohol) will occur. If the poly(vinyl alcohol) is cured in the presence of the medicament, the stability of the medicament must be considered. For example, flucinolone acetonide begins to decompose above a temperature of about 165° C. Thus, it is desired that a temperature for curing poly(vinyl alcohol) in the presence of flucinolone acetonide be in the range of about 120° C. to about 150° C. and preferably about 135° C.
smiles,measurement,value
CC1(C)O[C@@H]2C[C@H]3[C@@H]4C[C@H](F)C5=CC(=O)C=C[C@]5(C)[C@@]4(F)[C@@H](O)C[C@]3(C)[C@]2(C(=O)CO)O1 [flucinolone acetonide],temperature above which the medicament begins to decompose,> 165 °C

# From US20060068012A1, “Process for preparing poly (vinyl alcohol) drug delivery devices with humidity control” (Bausch & Lomb Incorporated, priority 2004, published 2006)
